Consider four compounds from US11813262B2, “Compositions and methods to increase muscular strength” (priority 2017, dated 2023).

Test [1] concerns 3D engineered skeletal muscle tissue from C2Cl2 myoblasts. Put plainly: Contractility of 3D engineered optogenetic skeletal muscle tissue (displacement of compliant cantilever). Conditions: for effect on muscle contraction of 3D muscle: other actin disrupters. The test is classed as cell-based, mouse. The source says:
An in vitro optogenetic skeletal muscle micro-tissue as a model system (e.g., engineered skeletal muscle) such as the one shown in FIG. 1A-1E was used. Briefly, a sacrificial molding technique was used to form the muscle tissue on the cantilevers. A steel rod was used to mold a cylindrical hole in solidified gelatin. The steel rod was then removed and myoblasts in an extracellular matrix material was inserted in its place. The myoblasts were then differentiated in place to form a differentiated muscle tissue. With this system, a range of actin inhibitors were tested (e.g., Cytochalasin D (Zygosporin A), Latrunculin A, SMIFH2, CK666 and Jasplakinode) including ones that bind to the barbed end of F-actin, ones that sequester G-actin monomers and inhibitors of formins, roughly a 100% increase in muscle strength was observed (FIGS. 2A-2B and FIGS. 3A-3B) and a 300% increase in external work performed was observed, within 2 hours of F-actin disruption. Additionally, disruption of the dynamic F-actin cytoskeleton using small molecule actin dynamics inhibitors led to a persistent 2-fold improvement in force (e.g., muscle performance or work) compared to exercising (FIG. 4A-4E). Actin disruption improved mouse muscle explant force, a model system that is very close to human muscle (FIG. 5A-5C).
(§1) Fabrication of a 3D engineered skeletal muscle tissue by differentiating C2Cl2 myoblasts mixed in a fibrin/matrigel extracellular matrix cast in to a muscle-like cylindrical shape using a sacrificial molding technique. The muscle tissue is anchored to a stiff cantilever and a more compliant cantilever. Optogenetic stimulation of the muscle tissue lead to muscle contraction which was quantified through measurable displacements of the compliant cantilever. ZygoA treatment of the 3D muscle tissues lead to a significant improvement in contraction relative to DMSO treated controls, reaching ˜2-fold increase in 2 hours.

Test [2] deals with F-actin. Kind of test: Phalloidin stain of F-actin in mouse EDL muscle explants. Conditions: 3 uM, 2 hours of treatment, vs DMSO.
Test [3] relates to mouse hindlimb extensor digitorum longus (EDL) muscle explant. Kind of test: Contractility of mouse hindlimb EDL muscle explant on cantilevers under electrical stimulation. The source says: The hindlimb extensor digitorum longus (EDL) muscle of a euthanized 2-3 month old male mouse was dissected. The EDL muscle was anchored between two kapton cantilevers using a cyanoacrylate glue. One of the cantilevers was movable whose position could be adjusted to change the resting tension of the muscle. The cantilever was moved to the point where maximal force was produced and was held at this point for the rest of the experiment. (FIG. 7A-7B).
The two colored envelopes around the curves representing the mean are the 68% and 95% confidence interval envelopes (FIG. 7D). ZygoA treated tissues that responded the best, with an average of ˜2× transient increase in contraction after treatment, followed by decline (FIG. 7E). […] Modeling the decline associated with rigor mortis as an exponential decay estimated the “true” strength change after treatment. The muscle strength was compared of tissue after treatment extrapolated to time t=0 and represent this as a strength ratio relative to the actual strength at t=0. ZygoA treated tissues show a ˜2.5-fold increase in median strength ratio relative to DMSO treated controls.

The subject of test [4] is F-actin. Kind of test: Fluorescence recovery after photobleaching of GFP-tagged G-actin in C2Cl2 myotubes. It counts as cell-based, mouse. The source says:
The fluorescence recovery in differentiated myotubes was affected by 3 different events: diffusion, dynamic F-actin turnover and stable F-actin turnover. DMSO treated tissues recovered faster than ZygoA treated tissues. […] These myotubes were excluded from the computation. Fluorescence recovery at different timescales (seconds, minutes, tens of minutes) reflected different molecular processes (diffusion of monomer, dynamic F-actin turnover, stable F-actin turnover). […] Changes in dynamic and stable F-actin fractions were statistically significant (FIG. 11D-11E).

The subject of test [5] is F-actin. Kind of test: Live confocal time-lapse microscopy of Sir-Actin stained myotubes. It counts as cell-based. The note with it: 0.3 uM. How it is done:
However, some of the background non-sarcomeric F-actin was depolymerized as also quantified in (FIG. 10D). Myotubes with an immature sarcomeric structure were depolymerized ˜5 hours after ZygoA treatment (FIG. 10C). Poorly differentiated, myotubes without visible sarcomeric structures had rupturing F-actin cables and significant actin upon actin disruption with ZygoA. […] Sir-Actin intensity before and 12 hours after treatment along sarcomeric F-actin in mature myotubes (FIG. 10D-10E).

In test [6] the test system is differentiated C2Cl2 myotubes. Put plainly: Active contraction of differentiated optogenetic C2Cl2 myotubes (Index of Movement). It counts as cell-based, mouse.
Description: as §1

The mark [7] stands for this setting: poorly differentiated myotubes without visible sarcomeric structures.

Consider `C/C1=C/C(=O)O[C@@H]2C[C@@H](CC[C@H](C)/C=C\C=C\CC1)O[C@@](O)([C@@H]1CSC(=O)N1)C2` [Latrunculin A], for which the “effect on muscle contraction of 3D muscle” value in test [1] is “improved muscle contraction”.
For `O=C1NC(=S)N(c2cccc(Br)c2)C(=O)C1=Cc1ccco1` [SMIFH2, 1-(3-Bromophenyl)-5-(2-furylmethylene)-2-thioxo-hexahydropyrimidine-4,6-dione], the “effect on muscle contraction of 3D muscle” value in test [1] was “improved muscle contraction”.
As for `C=C1[C@@H](C)[C@H]2[C@H](Cc3ccccc3)NC(=O)[C@]23[C@H](OC(C)=O)/C=C/[C@@](C)(O)C(=O)[C@@H](C)C/C=C/[C@H]3[C@@H]1O` [ZygoA, Zygosporin A], in the test with F-actin [2], the “F-actin disruption in muscle explants (phalloidin stain)” value was “disrupted F-actin”. Moreover, in test [1] (0.3 μM, long term (1 day)), the “longer term effect on active contraction” value was “no significant effect”. Moreover, in test [1] (3 uM for 2 hours followed by washout, days after washout), the “muscle contraction after pulsed treatment compared to DMSO treated controls” value is “sustained improvement in muscle contraction”. For the same compound, the “short term increase in force (active contraction)” value in test [1] (3 μM, 2 hours of exposure) worked out at 2.6 ×. In addition, the “decrease in contraction compared to the peak achieved 2 hours after exposure” value in test [1] (3 μM, longer term (1 day)) is listed as approximately 50%. In test [1] (3D muscle tissues, in 2 hours), the “increase in contraction relative to DMSO treated controls” value is approximately 2 fold. Also, the “effect of washout on contraction” value in test [1] (washout of high dose 3 uM) is “recovery of the force to the level of the peak”; in test [1] (washout of low dose 0.3 uM) it was “slight decrease in contraction (not significant)”. Further, the “transient increase in contraction after treatment” value in test [3] (ZygoA treated tissues that responded the best, average, treatment at t=60 mins) is reported as approximately 2 ×. The “increase in median strength ratio relative to DMSO treated controls” value in test [3] (strength after treatment extrapolated to t=0 (exponential decay model of rigor mortis) relative to actual strength at t=0) was approximately 2.5 fold. In addition, in test [3] (treatment at t=60 mins, before rigor mortis decline), the “contractility changes of treated tissues vs DMSO” value is “transient improvement”. In addition, the actin turnover time entry with F-actin [4] (FRAP, vs DMSO) is given as “slowed the actin turnover time in a dose-dependent manner”. For the same compound, the “amount of stable F-actin” value with F-actin [4] (higher dose 3 uM) was “reduces the amount of stable F-actin”. In addition, in the test with F-actin [4] (low dose 0.3 uM), the “amount of dynamic F-actin” value is listed as “reduced the amount of dynamic F-actin”. In the test with F-actin [5], the “time to depolymerization of myotubes with immature sarcomeric structure” value was approximately 5 h. Also, the “sarcomeric F-actin structure in mature myotubes after treatment” value in the test with F-actin [5] (12 hours after treatment, mature sarcomeric structure) is given as “still displayed the periodic sarcomeric structure”. Further, in the test with F-actin [5] (setting [7]), the “average F-actin filament length” value is on record as “decrease in the average F-actin filament length”. Further, in the test on F-actin [5] (setting [7]), the “number of F-actin filaments” value is “increase in number of F-actin filaments”. Moreover, the “active contraction (Index of Movement, active contractile displacement)” value in test [6] is listed as “significant improvement in active contraction”.
Regarding `C/C1=C\[C@H](C)C[C@H](C)OC(=O)C[C@H](c2ccc(O)cc2)NC(=O)[C@@H](Cc2c(Br)[nH]c3ccccc23)N(C)C(=O)[C@H](C)NC(=O)[C@@H](C)C1` [jasplakinolide], the “active contractility after F-actin stabilization” value in test [1] is recorded as “gradual decrease in active contractility”.
